≈ marks a conversion by molar mass, not a printed value. Calls of active or inactive are those of the source. The rule behind the calls is not given here.
What was measured:
Fusarium graminearum = assay: Antifungal activity against Gibberella zeae at 50 ug/mL by agar plate method; type: functional, organism-based
Fusarium oxysporum = assay: Antifungal activity against Fusarium oxysporum at 50 ug/mL by agar plate method; type: functional, organism-based
Botrytis = assay: Antifungal activity against Botrytis […] at 50 ug/mL by agar plate method; type: functional
Rhizoctonia solani [1] = assay: Antifungal activity against Rhizoctonia solani by agar plate method; type: functional, organism-based
Colletotrichum = assay: Antifungal activity against Colletotrichum gossypii at 50 ug/mL by agar plate method; type: functional
[2] = Antifungal activity against Dothiorella gregaria at 50 ug/mL by agar plate method; type: functional
Rhizoctonia solani [3] = assay: Ratio of triadimefon EC50 to compound EC50 for Rhizoctonia solani; type: functional

CCCCn1cnc(C(=O)N(C#N)Cc2ccccc2F)c1C
Activity (Fusarium graminearum): inactive | Activity (Fusarium oxysporum): inactive | Activity (Botrytis): inactive | EC50 (Rhizoctonia solani [1]): 13.3 µg/mL (≈ 42.2 µM) | Activity (Colletotrichum): inactive | Activity [2]: inactive

Cc1ccc(Cn2cnc(C(=O)N(C#N)Cc3ccc(F)cc3)c2C)cc1
Activity (Fusarium graminearum): inactive | Activity (Fusarium oxysporum): inactive | Activity (Botrytis): inactive | EC50 (Rhizoctonia solani [1]): 3.04 µg/mL (≈ 8.39 µM) | Activity (Colletotrichum): inactive | Activity [2]: inactive

Cc1ccc(Cn2cnc(C(=O)N(C#N)Cc3ccccc3F)c2C)cc1
Activity (Fusarium graminearum): inactive | Activity (Fusarium oxysporum): inactive | Activity (Botrytis): inactive | EC50 (Rhizoctonia solani [1]): 8.76 µg/mL (≈ 24.2 µM) | Activity (Colletotrichum): inactive | Activity [2]: inactive

Cc1c(C(=O)N(C#N)Cc2ccc(F)cc2)ncn1Cc1cccc([N+](=O)[O-])c1
Activity (Fusarium graminearum): inactive | Activity (Fusarium oxysporum): inactive | Activity (Botrytis): inactive | EC50 (Rhizoctonia solani [1]): 3.61 µg/mL (≈ 9.18 µM) | Activity (Colletotrichum): inactive | Activity [2]: inactive

COC(=O)c1ccccc1CN(C#N)C(=O)c1ncn(Cc2ccc(F)cc2)c1C
Activity (Fusarium graminearum): inactive | Activity (Fusarium oxysporum): inactive | Activity (Botrytis): inactive | EC50 (Rhizoctonia solani [1]): 13.3 µg/mL (≈ 32.6 µM) | Activity (Colletotrichum): inactive | Activity [2]: inactive

Cc1ccc(Cn2cnc(C(=O)N(C#N)CCCc3ccccc3)c2C)cc1
Activity (Fusarium graminearum): inactive | Activity (Fusarium oxysporum): inactive | Activity (Botrytis): inactive | EC50 (Rhizoctonia solani [1]): 4.64 µg/mL (≈ 12.5 µM) | Activity (Colletotrichum): inactive | Activity [2]: inactive

CC(C)(C)C(=O)C(Oc1ccc(Cl)cc1)n1cncn1 (stereo not drawn) [TRIADIMEFON]
EC50 (Rhizoctonia solani [1]): 14.7 µg/mL (≈ 50 µM)

Cc1c(C(=O)N(C#N)Cc2ccc(F)cc2F)ncn1Cc1ccc(F)cc1
Ratio EC50 (Rhizoctonia solani [3]): 5.6 | Activity (Fusarium graminearum): inactive | Activity (Fusarium oxysporum): inactive | Activity (Botrytis): inactive | EC50 (Rhizoctonia solani [1]): 2.63 µg/mL (≈ 6.84 µM) | Activity (Colletotrichum): inactive | Activity [2]: inactive

Cc1ccc(Cn2cnc(C(=O)N(C#N)Cc3ccccc3Cl)c2C)cc1
Activity (Fusarium graminearum): inactive | Activity (Fusarium oxysporum): inactive | Activity (Botrytis): inactive | EC50 (Rhizoctonia solani [1]): 3.53 µg/mL (≈ 9.32 µM) | Activity (Colletotrichum): inactive | Activity [2]: inactive

CCCCN(C#N)C(=O)c1ncn(CCCC)c1C
Activity (Fusarium graminearum): inactive | Activity (Fusarium oxysporum): inactive | Activity (Botrytis): inactive | EC50 (Rhizoctonia solani [1]): 9.01 µg/mL (≈ 34.3 µM) | Activity (Colletotrichum): inactive | Activity [2]: inactive

Cc1c(C(=O)N(C#N)Cc2ccc(F)cc2)ncn1Cc1ccc(F)cc1
Activity (Fusarium graminearum): inactive | Activity (Fusarium oxysporum): inactive | Activity (Botrytis): inactive | EC50 (Rhizoctonia solani [1]): 20.8 µg/mL (≈ 56.8 µM) | Activity (Colletotrichum): inactive | Activity [2]: inactive

Cc1c(C(=O)N(C#N)Cc2ccccc2F)ncn1Cc1cccc([N+](=O)[O-])c1
Activity (Fusarium graminearum): inactive | Activity (Fusarium oxysporum): inactive | Activity (Botrytis): inactive | EC50 (Rhizoctonia solani [1]): 6.67 µg/mL (≈ 17 µM) | Activity (Colletotrichum): inactive | Activity [2]: inactive

CCCCn1cnc(C(=O)N(C#N)Cc2ccccc2)c1C
Activity (Fusarium graminearum): inactive | Activity (Fusarium oxysporum): inactive | Activity (Botrytis): inactive | EC50 (Rhizoctonia solani [1]): 7.98 µg/mL (≈ 26.9 µM) | Activity (Colletotrichum): inactive | Activity [2]: inactive

Cc1ccc(Cn2cnc(C(=O)N(C#N)Cc3ccccc3)c2C)cc1
Activity (Fusarium graminearum): inactive | Activity (Fusarium oxysporum): inactive | Activity (Botrytis): inactive | EC50 (Rhizoctonia solani [1]): 3.04 µg/mL (≈ 8.83 µM) | Activity (Colletotrichum): inactive | Activity [2]: inactive

Cc1c(C(=O)N(C#N)Cc2ccccc2)ncn1Cc1ccc(F)cc1
Activity (Fusarium graminearum): inactive | Activity (Fusarium oxysporum): inactive | Activity (Botrytis): inactive | EC50 (Rhizoctonia solani [1]): 31.3 µg/mL (≈ 89.9 µM) | Activity (Colletotrichum): inactive | Activity [2]: inactive

Cc1ccc(CN(C#N)C(=O)c2ncn(Cc3ccc(C)cc3)c2C)cc1
Activity (Fusarium graminearum): inactive | Activity (Fusarium oxysporum): inactive | Activity (Botrytis): inactive | EC50 (Rhizoctonia solani [1]): 15.8 µg/mL (≈ 44.1 µM) | Activity (Colletotrichum): inactive | Activity [2]: inactive

Cc1c(C(=O)N(C#N)Cc2ccccc2)ncn1Cc1ccccc1
Activity (Fusarium graminearum): inactive | Activity (Fusarium oxysporum): inactive | Activity (Botrytis): inactive | EC50 (Rhizoctonia solani [1]): 7.74 µg/mL (≈ 23.4 µM) | Activity (Colletotrichum): inactive | Activity [2]: inactive
